The source of these data is patent publication US9598720B2, “Monomeric and polymeric linkers useful for conjugating biological molecules and other substances” (DAKO Denmark A/S, priority 2005, dated 2017).

“Also recorded” adds a separate entry of the source.

For the series, the system named is repetitive DNA sequence in the centromere of the human chromosome 17. Kind of series: FISH on metaphases with fluorescein labeled PNAs, green signal compared with a red fluorescent PNA. Conditions: visual and Leica QFISH Measure Intensity. The source says: The PNA sequence was directed at a repetitive DNA sequence in the centromere of the human chromosome 17, allowing the PNAs to be compared by FISH on metaphases. To erase specimen variation, each of the PNAs was mixed with a red fluorescent PNA directed at the same centromere region on chromosome 17, and the intensity of the red and green signals compared visually and quantified by the “Measure Intensity” function in the Leica QFISH program.
Regarding “((FlU-L60)2-Lys-L60)2-LyS-L30-AACGGGATAACTGCACCT-NH2 (all peptide nucleic acid (PNA); PNA with Lys(Flu) fluorescein and L30/L90 linkers at the termini, C-terminal amide, further chemistry not fully specified) [Linker derivative 19]”, the “intensity of the green signal” value is “more intense signals”.
In the case of “H-Lys(Flu)-L30-AACGGGATAACTGCACCT-L30-Lys(Flu)-L90-Lys(Flu)-L90-Lys(Flu)-NH2 (all peptide nucleic acid (PNA); PNA with Lys(Flu) fluorescein and L30/L90 linkers at the termini, C-terminal amide, further chemistry not fully specified) [Linker derivative 16]” it was “more intense signals; also recorded: most intense”; in that of “Ac-Lys(Flu)-L30-AACGGGATAACTGCACCT-L30-Lys(Flu)-L90-Lys(Flu)-L90-Lys(Flu)-NH2 (all peptide nucleic acid (PNA); PNA with Lys(Flu) fluorescein and L30/L90 linkers at the termini, C-terminal amide, further chemistry not fully specified) [Linker derivative 15]”, “more intense signals”.
